How the values were obtained:
Hsp104^WT = molecular target: T1, Hsp104^WT (Saccharomyces cerevisiae, UniProt P31539); test: RepA1–70-GFP unfolding assay; assay type: biochemical, yeast; details: GroELtrap, ATP:ATPγS 1:1
T1 construct: made in house; host or cells: E. coli BL21-DE3 RIL
Method: RepA1–70-GFP unfolding was performed as described previously. Varying concentrations of Suramin (0, 25, or 100 µM) were included as noted.
Next, we determined that Suramin hinders the unfoldase activity of Hsp104 using a RepA1–70-GFP substrate ( Figure 4A ). To assess RepA1–70-GFP unfolding without interference from spontaneous refolding, we added GroELtrap, which captures unfolded proteins to prevent refolding, [71].
Figure 4 Suramin inhibits Hsp104-mediated substrate unfolding and translocation. (A) RepA1–70-GFP was incubated with Hsp104^WT and GroELtrap plus a 1∶1 mixture of ATP and ATPγS. GFP unfolding was measured by fluorescence. GroELtrap alone is shown as a negative control (red line). Fluorescence values were normalized to initial raw fluorescence for each sample. Values represent mean ±S.D. (n = 3). (B) FITC-casein (0.1 µM) was incubated at 25°C with HAP (1 µM hexamer) and ClpP (21 µM monomer) plus ATP (5 mM) and an ATP regeneration system. Degradation of FITC-casein was monitored by fluorescence. Initial fluorescence was subtracted from raw fluorescence values for each sample. HAP alone is shown as a negative control (red line). Values represent mean ±S.D. (n = 5).

ClpB = molecular target: T2, ClpB (Escherichia coli, UniProt P63284); test: ClpB ATPase assay; assay type: biochemical, E. coli; details: for Normalized ATPase Activity: 10 min, ATP 1 mM, Figure 5A
T2 construct: made in house
T2 sequence (P63284 whole entry): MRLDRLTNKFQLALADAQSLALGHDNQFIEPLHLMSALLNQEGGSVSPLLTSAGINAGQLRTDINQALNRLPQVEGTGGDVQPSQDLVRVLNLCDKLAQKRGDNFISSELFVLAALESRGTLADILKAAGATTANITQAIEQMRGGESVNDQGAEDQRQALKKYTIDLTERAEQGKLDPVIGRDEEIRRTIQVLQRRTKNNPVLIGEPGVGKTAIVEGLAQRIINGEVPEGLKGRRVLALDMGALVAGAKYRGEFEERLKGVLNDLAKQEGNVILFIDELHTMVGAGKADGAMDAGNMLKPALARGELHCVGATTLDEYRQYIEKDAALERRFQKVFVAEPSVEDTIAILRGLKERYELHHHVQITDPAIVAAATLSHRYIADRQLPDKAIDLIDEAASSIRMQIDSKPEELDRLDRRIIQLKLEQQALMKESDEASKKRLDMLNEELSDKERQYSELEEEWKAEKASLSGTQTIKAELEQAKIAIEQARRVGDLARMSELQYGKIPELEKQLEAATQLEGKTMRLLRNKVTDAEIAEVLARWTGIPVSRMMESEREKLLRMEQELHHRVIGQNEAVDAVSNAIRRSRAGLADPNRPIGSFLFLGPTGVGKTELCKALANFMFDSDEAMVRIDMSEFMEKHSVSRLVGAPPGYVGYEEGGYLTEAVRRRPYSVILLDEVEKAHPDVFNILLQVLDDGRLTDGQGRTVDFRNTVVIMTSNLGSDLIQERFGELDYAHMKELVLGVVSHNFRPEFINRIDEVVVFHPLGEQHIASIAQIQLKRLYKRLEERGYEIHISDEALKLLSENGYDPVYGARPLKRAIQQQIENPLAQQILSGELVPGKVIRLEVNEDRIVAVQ
Method: Wild-type or mutant Hsp104 (0.25 µM monomer) in ATPase buffer (20 mM HEPES-KOH pH 7.4, 20 mM NaCl and 10 mM MgCl2) was incubated for 60 or 10 min at 25°C in the presence of ATP (1 mM) as noted. ATPase activity was assessed by the release of inorganic phosphate determined by using a malachite green phosphate detection kit (Innova).
(A) ClpB (0.25 µM monomer) was incubated for 10 min with ATP (1 mM) and varying concentrations of Suramin. The amount of Pi produced was measured by absorbance at 635 nm. Absorbance values were normalized to the absorbance produced by ClpB in the absence of inhibitor. Values represent mean ±S.D. (n = 6). (B) Urea-denatured firefly luciferase aggregates were incubated for 90 min at 25°C with ClpB (1 µM hexamer) in the presence of 1∶1 mixtures of ATP and ATPγS and varying concentrations of Suramin. Reactivation of luciferase was then determined by luminescence and converted to % WT ClpB activity (activity of 1 µM WT ClpB in the presence of ATP and ATPγS). Values represent mean ±S.D. (n = 6–12). TEXT PRINTED IN THE PICTURE: (A) Suramin: Normalized ATPase Activity: 1.03 ([Suramin] μM: 0); Normalized ATPase Activity: 0.76 ([Suramin] μM: 100); Normalized ATPase Activity: 0.78 ([Suramin] μM: 50); Normalized ATPase Activity: 0.60 ([Suramin] μM: 25); Normalized ATPase Activity: 0.59 ([Suramin] μM: 10); Normalized ATPase Activity: 0.65 ([Suramin] μM: 5); Normalized ATPase Activity: 1.01 ([Suramin] μM: 1) | (B) Suramin: Normalized Luciferase Refolding Activity: 1.00 ([Suramin] μM: 0); Normalized Luciferase Refolding Activity: 0.16 ([Suramin] μM: 100); Normalized Luciferase Refolding Activity: 1.03 ([Suramin] μM: 50); Normalized Luciferase Refolding Activity: 1.39 ([Suramin] μM: 25); Normalized Luciferase Refolding Activity: 2.23 ([Suramin] μM: 10); Normalized Luciferase Refolding Activity: 1.82 ([Suramin] μM: 5); Normalized Luciferase Refolding Activity: 1.02 ([Suramin] μM: 1)

T1 sequence (P31539 whole entry): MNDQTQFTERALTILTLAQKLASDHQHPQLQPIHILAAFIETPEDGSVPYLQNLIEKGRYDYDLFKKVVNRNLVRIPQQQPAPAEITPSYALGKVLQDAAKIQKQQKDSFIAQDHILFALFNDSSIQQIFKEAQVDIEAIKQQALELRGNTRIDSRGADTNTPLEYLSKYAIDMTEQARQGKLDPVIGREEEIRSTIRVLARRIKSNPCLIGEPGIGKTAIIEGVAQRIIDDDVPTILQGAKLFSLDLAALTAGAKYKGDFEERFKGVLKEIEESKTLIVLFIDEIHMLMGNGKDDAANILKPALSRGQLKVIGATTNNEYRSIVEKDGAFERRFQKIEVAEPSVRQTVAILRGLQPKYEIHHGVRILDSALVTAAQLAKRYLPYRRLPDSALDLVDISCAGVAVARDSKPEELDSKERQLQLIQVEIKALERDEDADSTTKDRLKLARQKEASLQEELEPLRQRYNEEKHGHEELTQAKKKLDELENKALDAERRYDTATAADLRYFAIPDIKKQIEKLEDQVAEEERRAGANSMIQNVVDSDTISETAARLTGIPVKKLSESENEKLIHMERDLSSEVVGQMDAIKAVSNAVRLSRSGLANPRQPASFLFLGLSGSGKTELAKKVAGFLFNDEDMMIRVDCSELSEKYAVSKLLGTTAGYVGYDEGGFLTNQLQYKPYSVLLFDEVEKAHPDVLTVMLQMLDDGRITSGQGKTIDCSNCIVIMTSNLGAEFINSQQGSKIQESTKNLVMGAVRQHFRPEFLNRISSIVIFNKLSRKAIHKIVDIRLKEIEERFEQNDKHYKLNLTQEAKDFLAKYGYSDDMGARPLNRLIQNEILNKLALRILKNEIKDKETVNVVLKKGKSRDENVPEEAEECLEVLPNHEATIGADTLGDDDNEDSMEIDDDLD

Cc1ccc(C(=O)Nc2ccc(S(=O)(=O)O)c3cc(S(=O)(=O)O)cc(S(=O)(=O)O)c23)cc1NC(=O)c1cccc(NC(=O)Nc2cccc(C(=O)Nc3cc(C(=O)Nc4ccc(S(=O)(=O)O)c5cc(S(=O)(=O)O)cc(S(=O)(=O)O)c45)ccc3C)c2)c1 [Suramin]
Effect on RepA1–70-GFP unfolding by Hsp104 (Hsp104^WT; Suramin 25 µM): only mildly inhibited
Effect on RepA1–70-GFP unfolding by Hsp104 (Hsp104^WT; Suramin 100 µM): prevented substrate unfolding
Normalized ATPase Activity (ClpB; ClpB 0.25 µM monomer, Suramin 100 µM): 0.76
Normalized ATPase Activity (ClpB; ClpB, Suramin 1 µM): 1.01
Normalized ATPase Activity (ClpB; ClpB, Suramin 5 µM): 0.65
Normalized ATPase Activity (ClpB; ClpB, Suramin 10 µM): 0.59
Normalized ATPase Activity (ClpB; ClpB, Suramin 25 µM): 0.60
Normalized ATPase Activity (ClpB; ClpB, Suramin 50 µM): 0.78
inhibition at 100 µM (ClpB; Suramin 100 µM): 24%

Source: article PMC4192545, “Suramin Inhibits Hsp104 ATPase and Disaggregase Activity” (PLoS ONE, 2014)
